{"source": "patent US20090042208A1", "about": "“Assays for erectile and bladder dysfunction and vascular health” (priority 2007, published 2009)", "key": {"[1]": {"system": "isolated corporal smooth muscle tissue", "assay": "Contractility (relaxation rate) of isolated corporal smooth muscle strips", "design": "species or system rat", "procedure": "Studies of contractility of isolated smooth muscle tissue were carried out as described previously (Chang et al. 2003, Spektor et al. 2002). Four longitudinal strips of cavernous tissue from the crura of old animals (n=4) were dissected free from the tunica albuginea and were suspended between two small surgical hooks in a tension-measuring device (Multimyograph Model 610M, Copenhagen, Denmark) that allows simultaneous monitoring of four muscle strips. Tissue was equilibrated for 90 min in 6 ml Krebs-Henseleit buffer composed of 110 mM NaCl, 4.8 mM. KCl, 2.5 mM CaCl2, 1.2 mM MgSO4, 1.2 mM KH2PO4, 25 mM NaHCO3, 11 mM glucose, and dextrose in glass-distilled water. Organ chambers were maintained at 37° C. and continuously bubbled with 95% O2 and 5% CO2 to maintain a mean pH of 7.4±0.1. Continuous recording of tension developed by the muscle strips was carried out using Powerlab software (Chart version 4.2.4, ADinstruments, CO) on a dedicated computer. Strips of corpus cavernosum first were precontracted with phenylephrine (10^−6 M). Then, relaxation was induced using CNP (10^−6 M). […] Results from four separate strips from four animals were averaged and the significance determined by the Student's t test."}, "[2]": {"system": "Vcsa1 and Slo transcripts in corporal tissue", "assay": "Quantitative RT-PCR of Vcsa1 and Slo transcripts in corpora after tadalafil, pVAX-hSlo or both", "assay_type": "in vivo, rat", "settings": "tadalafil 2.5 mg/kg orally 2 h before; pVAX-hSlo 1000 μg 1 month before; or both", "procedure": "(§1) In a second set of animals (retired breeder, male Sprague Dawley rats) in which the effect of tadalafil was to be measured alone or in combination with pVAX-hSlo, 1000 μg pVAX-hSlo was administered to 10 animals 1 month prior to determination of erectile function and gene expression. Five of these animals were treated with 2.5 mg/kg of tadalafil orally two hours prior to ICP/BP measurement. A third group of five animals were untreated controls, and the fourth group of five animals treated with 2.5 mg/kg of tadalafil orally. two hours prior to ICP/BP measurement.\nRNA Isolation from corporal tissue. Following the ICP/BP measurement, animals were euthanized and corporal tissues isolated and flash frozen in liquid nitrogen. […]\nMeasurement of gene expression by quantitative RT-PCR. RNA extracted either from corporal tissue or transfected corporal smooth muscle cells was used to analyze gene expression by quantitative RT-PCR. […] Real-time quantitative PCR analysis was performed using the 7300 real-time PCR system (Applied Biosystems, Foster City, Calif.).\nThe PCR reactions for all samples were performed in 96-well plates, with 2 μl cDNA, 100 nM each primer, and 12.5 μl of Sybr Green in a 25-μl reaction volume. […] The relative quantified value for each target gene in corpora of treated rats is expressed as 2^−(Ct−Cc) (Ct and Cc are the mean threshold cycle differences after normalizing to RPL24). […]"}, "retired breeder rats": {"system": "retired breeder rats", "assay": "Longest visually observed erection and ICP/BP after tadalafil, pVAX-hSlo or both", "assay_type": "in vivo, rat", "settings": "tadalafil 2.5 mg/kg orally 2 h before; pVAX-hSlo 1000 μg intracorporal 1 month before", "procedure": "as §1\nICP/BP measurement. ICP/BP was measured essentially as previously described (Christ et al. 1998; Melman et al. 2003). Briefly, animals were anesthetized by intraperitoneal injection of pentobarbital sodium (35 mg/kg). An incision was made in the perineum, and the corpus cavernosum exposed. The cavernous nerves were identified adjacent to the prostate gland. Direct electrostimulation of a cavernous nerve was performed with a delicate stainless steel bipolar hook electrode attached to the multi-jointed clamp. […] Prior to electrostimulation the longest visually observed erection was measured. […] The changes in ICP and systemic BP were recorded at each level of neurostimulation. The mean ICP/BP, standard deviation, and analysis of variance were calculated for each of the treatment groups."}, "[3]": {"system": "retired breeder male Sprague-Dawley rats", "assay": "ICP/BP and blood pressure after intracorporal injection of sialorphin", "assay_type": "in vivo, rat", "settings": "10 and 100 μg intracorporal", "procedure": "Experiments were carried out on 9- to 10-month-old retired breeder male Sprague-Dawley rats weighing more than 500 g (as described in Melman et al. 2005). When measurements were complete, animals were killed by placement within a CO2 gas chamber. All protocols were approved by the Animal Use Committee and Internal Review board at the Albert Einstein College of Medicine.\nThe sialorphin peptide (2 mg) was dissolved in 0.5 ml of 0.01 N acetic acid and then was vortexed, and the solution was centrifuged for a few seconds at approximately 1000 g and 4° C. (to gather all the liquid at the bottom of the tube). The stock solution was stored in 25-μl aliquots (100 μg) at −70° C. Before use, the stock was thawed on ice, and phosphate buffered saline (pH 7.4) was added to bring the volume to 150 μl.\nIntracorporal microinjection of sialorphin into rat corporal tissue was modified from previously described procedures, where plasmids were injected intracorporeally to investigate their effect on the ICP/BP ratio (Christ et al. 1998, 2004; Melman et al. 2005). […] The changes in ICP and systemic BP were recorded at both levels of neurostimulation. […] Mean ICP/BP (n=7) and standard deviation were calculated before and after treatment. Significant change in the ICP/BP value from that of the pretreatment group was determined by Student's t test."}}, "note": "Marks after values point to notes of the source that are not given here. Ends that are not written are not given here.", "data": [{"compound": "C-type natriuretic peptide [CNP]", "values": [{"measurement": "Increase in the relaxation rate of the tissue", "setting": "[1]; 1 μM CNP, versus carrier", "value": 67, "unit": "%"}, {"measurement": "Rate of Tension Loss", "setting": "[1]; strips precontracted with 1 μM phenylephrine, 1 μM CNP and/or 1 μg/ml sialorphin", "value": "0.087* g/min"}]}, {"compound": "CN1CC(=O)N2[C@H](c3ccc4c(c3)OCO4)c3[nH]c4ccccc4c3C[C@@H]2C1=O", "note": "[tadalafil]", "values": [{"measurement": "Vcsa1 expression increase versus untreated animals", "setting": "[2]", "value": "approximately 4 fold"}, {"measurement": "Longest erection time, difference to untreated control groups", "setting": "retired breeder rats", "value": "about 100 seconds"}, {"measurement": "Longest measured erection time", "setting": "retired breeder rats", "value": "approximately 210 seconds"}]}, {"compound": "QHNPR [sialorphin, QHNPR]", "values": [{"measurement": "Effect on systemic blood pressure", "setting": "[3]", "value": "no effect"}]}]}
